Assays:
[1] = Photostability evaluation (irradiation in MeOH, TLC analysis); assay type: physicochemical; details: MeOH, irradiated for 2 hours, 450W lamp; approximate estimation of the total sum of photoproducts
Protocol: All the irradiations preformed in the photostability studies were carried out in an ACE 7840 photoreactor using a 450W power ACE 7825 lamp.
The solvent used in the photostability test was methanol [MeOH] (ppa) (250 mL), using a concentration of […] of p-nitrolophine. The solution was irradiated for 2 hours, samples being taken at 10 minutes, 20 minutes, 1 hour and 2 hours, and being dried in a rotating evaporator. Each sample was analyzed by thin layer chromatography (TLC in Silica gel) using petroleum ether:ethyl acetate (4:1) as eluent. The chromatography plates were viewed under a 254 nm lamp and a 366 nm lamp, as well as by means of simultaneous viewing under both lamps (254 and 366 nm).
Specifically, three photoproducts (three blots) could be determined, which were isolated by preparative TLC.
A saturated solution of m-nitrolophine in MeOH was prepared to perform the study since the solubility in this solvent is low (approximately 0.2 mg/mL). Briefly, an amount of m-nitrolophine sufficient to ensure the saturation in 200 mL of MeOH throughout the night was left stirring. The solution was filtered and irradiated for 2 hours, samples of 10 mL being taken at 10 minutes, 20 minutes, 1 hour and 2 hours, and being dried in rotating evaporator. […]

ERα = target: T1, ERα (Homo sapiens, UniProt P03372); assay: Estrogenicity reporter gene bioassay (luciferase activity) in HELN-ERα cells; assay type: cell-based
T1 construct: expressed in transfected cells; host or cells: HeLa (HELN-ERα)
T1 sequence (P03372 1-595): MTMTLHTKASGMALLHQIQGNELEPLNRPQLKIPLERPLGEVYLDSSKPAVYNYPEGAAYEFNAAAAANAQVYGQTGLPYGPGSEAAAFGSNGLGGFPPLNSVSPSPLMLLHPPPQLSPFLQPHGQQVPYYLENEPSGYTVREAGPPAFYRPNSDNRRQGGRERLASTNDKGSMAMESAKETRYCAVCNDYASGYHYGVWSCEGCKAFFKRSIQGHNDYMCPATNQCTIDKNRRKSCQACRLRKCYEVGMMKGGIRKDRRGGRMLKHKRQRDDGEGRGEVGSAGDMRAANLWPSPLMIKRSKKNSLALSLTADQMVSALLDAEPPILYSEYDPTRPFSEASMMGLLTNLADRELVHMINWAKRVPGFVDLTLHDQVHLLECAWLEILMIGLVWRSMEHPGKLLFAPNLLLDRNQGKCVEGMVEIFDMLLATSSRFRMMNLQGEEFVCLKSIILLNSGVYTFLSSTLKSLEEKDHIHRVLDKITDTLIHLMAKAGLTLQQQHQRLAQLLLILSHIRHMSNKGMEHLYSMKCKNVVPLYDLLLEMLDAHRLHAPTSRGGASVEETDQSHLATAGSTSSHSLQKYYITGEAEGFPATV
Source text: Briefly, the transactivation bioassay (Reporter gene assay) used are based on the use of breast and uterine cancer cell lines transfected with different native or modified hormone receptors. The resulting cell lines further contain a reporter gene regulated by estrogens through the estrogen response element, the globin promoter and the luciferase gene.
HELN-ERα and HELN-ERβ cell lines were obtained by means of transfecting the HeLa uterine cancer cell line. In a first phase, said cells were transfected with an estrogen sensitive response element and then with the estrogen receptor alpha or beta (ERα or ERβ). The selection of clones resistant to geneticin and puromycin was performed using a concentration of 1 mg/mL and 0.5 mg/mL, respectively. The maintenance medium as well as the experimental medium of these 2 cell lines is DMEM F12 without phenol red supplemented with 6% of FBS (lacking of estrogens), 1% of penicillin / streptomycin, 1 mg/mL of geneticin and 0.5 µg/mL of puromycin.
The cells were seeded at a density of 5x10^4 cells per well in white opaque 96 well plates in 150 µL of experimental medium. After 8 hours, the compounds to be assayed (p-nitrolophine and estradiol) were prepared (concentrated 4x) in the same medium and were added to each well (50 µl). The cells were incubated for 16 hours at 37°C. At the end of the incubation, the medium was removed and replaced with fresh medium containing […] luciferin [at that concentration, luciferin diffuses into cell producing a luminescent signal which is stable after 5 minutes and for at least 2 hours]. The plates were then introduced in the luminometer to measure the luminescence for 2 seconds. A YicroBeta Trilux luminometer (EGG Wallac) apparatus was used to detect luciferase activity.
The assays were preformed in quadruple for each concentration (0.01-10 µM) in at least three independent experiments. […] The values of luciferase activity obtained were analyzed using the one-way ANOVA statistic test. The differences were considered significant when P was less than […] (P < 0.05).

- degradation [1]: lower than 5%
- activity at 0.01 µM (ERα): 11.1 ± 0.9%
- activity at 0.03 µM (ERα): 11.7 ± 0.9%
- activity at 0.1 µM (ERα): 10.7 ± 1.1%
- activity at 0.3 µM (ERα): 11.3 ± 1.5%
- activity at 1 µM (ERα): 11.1 ± 1.1%
- activity at 3 µM (ERα): 11.2 ± 1.4%
- activity at 10 µM (ERα): 11.6 ± 1.5%
- estrogenicity (ERα; HELN-ERα line, conclusion in words): not estrogenic
SMILES: O=[N+]([O-])c1ccc(-c2nc(-c3ccccc3)c(-c3ccccc3)[nH]2)cc1 [p-nitrolophine, 2-(4-nitrophenyl)-4,5-diphenyl-1H-imidazole]
